Legend:
[1] = tested on: hemizygous PMP22 transgenic rat (CMT rat); test: Bar test in CMT transgenic rat model; format: in vivo; settings: CMT rats; for bar test performance compared with the placebo group: 16 weeks of treatment; for improvement of bar test motor performances versus placebo: after 8 weeks of the force-feeding; for bar test performances throughout the treatment procedure: chronic treatment
Source text: Four weeks-old rats transgenic PMP22 rats have been used throughout of the study. Aspects of the study design (randomization, statistics for multiple comparisons, sample size etc.) have been checked to be in line with the recommendations provided in 4th issue of 43rd volume of ILAR Journal (2002), that provides reviews in the field of experimental design and statistics in biomedical research.
The experimental groups are formed with young rats of both genders separately. The rats are assigned to the groups following randomization schedule based on the body weight. In some experiments the randomization is based on the performances of the rats in the bar test.
Both genders are represented by separate control groups that are numerically equal or bigger than the treatment groups.
The animals are weighted twice a week in order to adjust the doses to growing body weight. If the osmotic pump is chosen for the treatment administration, the doses of the drug are calculated on the basis of the estimated mean body weight of the animals expected for their age over the period of the pump duration (6 weeks). The pumps are re-implanted if necessary, with the appropriated aesthesia protocol.
Each three or four weeks the animals are subjected to a behavioural test. Each test is conducted be the same investigator in the same room and at the same time of the day; this homogeneity is maintained throughout entire experiment. All treatments are blinded for the investigator. “Bar test” and “Grip strength” has been mainly used to access the performance throughout study. The schedule of the bar test may change as the animal growth (in order to avoid the bias due to the learning, for example).
The Bar Test evaluates rats' ability to hold on a fix rod. […] The rat is placed on its four paws on the middle of the rod (diameter: 2.5 cm; length: 50 cm; 30 cm above the table). Trials are performed consecutively; the number and the duration of trials in our experiments have been depending on batches of the animals. This variability in the testing have been introduced in order to determine the schedule appropriated to the best detection of the motor deficiency in the CMT rats in the course of the experiments.
Performance indices are recorded on each session: • The number of trials needed to hold for 60 sec (or 30 sec for batch 1, session 1 and 2) on the rod. • The time spent on the bar (i.e. the fall latency) in each trial and the average on the session. In the experimental procedures where the session ends after the rat has stayed for a cut-off time, i.e. 30 or 60 s, on the bar, a performance of the cut-off time (30 s or 60 s) is assigned to trials not completed (eg: for batch 8, for an animal which stays on the bar less than 10 sec on trials 1, 2 and 3, then for 60 sec on trials 4 and 5, 60 s is assigned to trials 6 to 10). • The number of falls.

PMP22 mRNA = PMP22 mRNA level by quantitative RT-PCR after drug stimulation of rat Schwann cell primary culture; format: cell-based; set-up: key: +: significantly decreases PMP22 levels compared to control; settings: rat primary Schwann cells, drug incubation 24 hrs
Description: After cells being platted in 12 well-dishes, the medium is replaced by a defined medium consisting in a mix of DMEM-F12 (Invitrogen #21331020) complemented by 1% of N2 supplement (Invitrogen #17502), 1% L-Glutamine (Invitrogen #25030024) 2.5% FBS (Sciencell #0025), 0.02 μg/ml of corticosterone (Sigma #C2505), 4 μM Forskolin and 50 μg/ml of gentamycin. Growth factors are not added to this medium, to promote SC differentiation
24 hours later, the medium is replaced by a defined medium (DMEM-F12) complemented with 1% Insulin-Transferrin-Selenium-X (ITS, Invitrogen #51300), 16 μg/ml of Putrescine (Sigma #P5780), 0.02 μg/ml of corticosterone and 50 μg/ml of gentamicin. At this step, neither progesterone nor forskolin are present in the medium.
One day later, Schwann cells are stimulated by combinations of drugs or drugs alone during 24 hrs (3 wells/condition). The preparation of each compound is performed just prior to its addition to the cell culture medium.
Drugs are added to a defined medium composed of DMEM-F12, with 1% Insulin-Transferrin-Selenium-X (ITS, Invitrogen #51300), 16 μg/ml of Putrescine, 0.02 μg/ml of corticosterone, 10 nM Progesterone and 50 μg/ml of gentamicin. The absence of Forskolin during drug stimulation avoids adenylate cyclase saturation.
Quantitative RT-PCR is used to compare the levels of PMP22 mRNA after drug stimulation, relative with housekeeping Ribosomal L13A mRNA in rat Schwann cell primary culture.
After rinsing with cold sterilized PBS, total RNAs from each cell sample are extracted and purified from SC using the Qiagen RNeasy micro kit (Qiagen #74004). Nucleic acids are quantified by Nanodrop spectrophotometer using 1 μl of RNA sample. The RNA integrity is determined through a BioAnalyzer (Agilent) apparatus.
RNAs are reverse-transcribed into cDNA according to standard protocol. cDNA templates for PCR amplification are synthesized from 200 ng of total RNA using SuperScript II reverse-transcriptase (Invitrogen #18064-014) for 60 min at 42° C. in the presence of oligo(dT), in a final volume of 20 μl.
cDNAs are subjected to PCR amplification using the ? LightCycler® 480 ? system (Roche Molecular Systems Inc.) Each cDNA are diluted five times before being used for PCR amplification. 2.5 μl of this cDNAs enters the PCR reaction solution (final volume of 10 μl). Preliminary experiments ensured that quantitation was done in the exponential phase of the amplification process for both sequences and that expression of the reference gene was uniform in the different culture conditions.
PCR reaction is performed by amplification of 500 nM of forward primer of rat PMP22 (NM_017037), 5-GGAAACGCGAATGAGGC-3 (SEQ ID NO: 1), and 500 nM of reverse primer 5-GTTCTGTTTGGTTTGGCTT-3 (SEQ ID NO: 2) (amplification of 148-bp). A 152-bp fragment of the RPL13A ribosomal (NM_173340) RNA is amplified in parallel in separate reactions for normalization of the results by using 500 nM of forward primer 5-CTGCCCTCAAGGTTGTG-3 (SEQ ID NO: 3), and 500 nM of reverse primer 5-[…]-3 (SEQ ID NO: 4).
We used FRET chemistry to perform RT-Q-PCR analysis. FRET probes are composed of 0.3 μM of Pmp22-FL-5-[…] (SEQ ID NO: 5) or Rpl13A-FL-5-TCGGGTGGAAGTACCAGCC (SEQ ID NO: 6), labelled at their 3′ end with a donor fluorophore dye (Fluorescein). 0.15 μM Red640 probes are defined as follows: Pmp22-red-5′-[…]- (SEQ ID NO: 7) or Rpl13A-red-5′-[…] (SEQ ID NO: 8), labelled at their 5′ end with an acceptor fluorophore dye (Rhodamine Red 640).
Each PCR reaction contained 2.5 μl cDNA template in a final volume of 10 μl of master mix kit (Roche #04-887301001).
The following PCR conditions are used: 10 sec at 95° C., 10 sec at 63° C. and 12 sec at 72° C. and 30 sec at 40° C. (Forty amplification cycles). The relative levels of PMP22 gene expression is measured by determining the ratio between the products generated from the target gene PMP22 and the endogenous internal standard RPL13A. […]

SMILES	first dose shown to be active, as fraction of the dose equivalent to dosage used in human for the canonical indications [1]	bar test performance compared with the placebo group [1]	improvement of bar test motor performances versus placebo [1]	bar test performances throughout the treatment procedure [1]	mRNA (PMP22 expression decrease) (PMP22 mRNA)
CC[C@@H]1C(=O)OC[C@@H]1Cc1cncn1C [Pilocarpine]	one half	significantly more performing	statistically significant	improved bar test performances	+
Cn1cc[nH]c1=S [Methimazole]	one fourth	significantly more performing	statistically significant	improved bar test performances	+

Source: patent US8992891B2, “Therapeutic approaches for treating CMT and related disorders” (Pharnext, priority 2007, dated 2015)
